# Data published in patent US11806364B2, “Method for producing myeloid-derived suppressor cells, myeloid-derived suppressor cells produced thereby, and methods thereof” (Industry-Academic Cooperation Foundation, Yonsei University, priority 2017, dated 2023).
# Tests used:
# M-MDSCs = test: Secondary differentiation into dendritic cells of M-MDSCs induced with TLR9 agonist plus IL-6 or IL-6 receptor blocker; type: cell-based; details: GM-CSF 5 days; compared with only TLR9 agonist
# Description: In order to identify whether the M-MDSCs induced according to respective treatments as described above are secondarily differentiated into dendritic cells, culture was performed for 5 days in the same manner as the method of inducing differentiation into dendritic cells in Example 8.
# bone marrow cells [1] = test: IL-6 or IL-6 receptor blocker together with TLR9 agonist, proportions of MDSCs and dendritic cells; type: cell-based; details: applied together with a TLR9 agonist, 3 method, day 6
# Excerpt: In order to evaluate differentiation into M-MDSCs caused by IL-6 and functions of the M-MDSCs, recombinant IL-6 or an IL-6 receptor blocker was applied together with a TLR9 agonist using the 3 method in Example 1, and then the cells were harvested on day 6 of culture. Among the cells harvested according to the respective treatments, proportions of MDSCs and dendritic cells were checked.
# bone marrow cells [2] = test: Cytokine applied in place of the TLR agonist, formation of M-MDSCs and dendritic cells; type: cell-based; details: day 6; for M-MDSCs are formed and differentiation into dendritic cells is inhibited: 3 method
# Excerpt: On day 6 of culture, it was identified whether M-MDSCs and dendritic cells are formed.
# bone marrow cells [3] = test: Phenotypic analysis of cells induced by TLR stimulation; type: cell-based, C57BL/6 mice; details: 3 method, culture for 6 days
# Excerpt: The results obtained by analyzing phenotypes of cells harvested after treating bone marrow cells with a TLR agonist in the same manner as the 3 method in Example 1 and performing culture for 6 days are illustrated in FIGS. 7 and 8. […] From these expression patterns, it was predictable that the cells induced by differentiation from the bone marrow cells are myeloid-derived suppressor cells (MDSCs).
# bone marrow cells [4] = test: MDSC subtypes by Gr-1, Ly6G and Ly6C expression; type: cell-based, C57BL/6 mice
# Excerpt: As illustrated in Example 3, it can be seen that the cells, which have been induced by differentiation from bone marrow cells after TLR stimulation according to the 3 method in Example 1, are MDSCs. On the other hand, subtypes of the MDSCs may be divided into monocytic-MDSCs (M-MDSCs) and granulocytic-MDSCs (G-MDSCs). Gr-1^high cells mostly correspond to G-MDSCs, and Gr-1^low cells may be classified as M-MDSCs.
# Thus, for MDSCs harvested after performing culture for 6 days with a Gr-1 antibody using the 3 method in Example 1, an expression level of Gr-1 was checked. The results are illustrated in FIGS. 9 and 10.
# Furthermore, in order to accurately classify subtypes of MDSCs, their expression patterns were identified using Ly6G and Ly6C antibodies.
# bone marrow cells [5] = test: Ly6G/Ly6C expression patterns in C57BL/6 and MyD88^−/− mice; type: cell-based, C57BL/6 mice and C57BL/6 MyD88^−/− mice; details: MyD88 dependence study, 3 method
# Description: In order to identify whether differentiation into respective MDSCs' subtypes is induced in a MyD88-dependent manner, C57BL/6 mice and C57BL/6 MyD88^−/− mice were treated in the same manner as the 3 method in Example 1, and then expression patterns of Ly6G and Ly6C were identified in the same manner as in Example 4 (FIG. 13).
# bone marrow cells [6] = test: Cytokines induced at early differentiation stages after TLR stimulation; type: cell-based; details: for cytokines induced at early differentiation stages: 8, 18, and 36 hours after stimulation with TLR agonist; for IFN-γ, IL-15, IL-1β, TGF-β, IL-4, IL-12p70, IL-10, and FLT2L induction: not shown by data
# Description: Hereinafter, experiments were conducted assuming that for respective M-MDSCs induced by differentiation upon treatment with a TLR2 or TLR9 agonist, differences in phenotype, T cell inhibition capacity, regulatory T cell formation capacity, and differentiation into dendritic cells are due to different cytokine secretion induced by each TLR stimulation. Therefore, cytokines induced at early differentiation stages (8, 18, and 36 hours after stimulation with TLR agonist) after treatment of bone marrow cells with a TLR2 or TLR9 agonist were analyzed.
# bone marrow cells [7] = test: Differentiation of bone marrow cells with GM-CSF, proportion of CD11c+ cells; type: cell-based, C57BL/6 mice; details: for capacity of inhibiting dendritic cells (proportion of CD11c^+ cells): 50 ng/ml, 3 method (initiation of differentiation and day 3), day 6 of culture
# Description: Whole bone marrow cells in the femurs were harvested from C57BL/6 mice using a bone marrow harvesting needle. The harvested bone marrow cells were washed with PBS and red blood cells (RBCs) were removed using a red blood cell lysis buffer (Sigma Aldrich). The bone marrow cells were dispensed in a 6-well plate (1×10^6 cells/ml; 2 ml/well) and cultured, under a condition of 5% CO2 and 37° C., in complete RPMI 1640 (c-RPMI 1640) medium supplemented with 100 U/mL of penicillin/streptomycin (Lonza, Basel, Switzerland), 10% fetal bovine serum (Lonza), 50 μM mercaptoethanol (Lonza), 0.1 mM non-essential amino acids (Lonza), and GM-CSF (20 ng/mL). […] On day 3 of culture, the bone marrow cells and 1 ml of c-RPMI 1640 medium were added to each well. On day 6 of culture, the cells were collected and stained with Fluorescein-conjugated CD11c mAb to measure a proportion of CD11c^+ cells. […] In addition, in a case where the 3 method is used, proportions of CD11c^+ cells were checked for respective treatment concentrations of each TLR agonist (TLR2 agonist (Pam3)—1, 10, and 50 ng/ml; TLR3 agonist (Poly I:C)—10, 100, and 500 ng/ml; TLR4 agonist (LPS)—1, 10, and 50 ng/ml; TLR7 agonist (imiquimod)—1, 10, and 50 ng/ml; TLR9 agonist (CPG:ODN)—1, 10, and 50 ng/ml).
# bone marrow cells [8] = test: Proportion of CD11c+MHC-II+ cells after TLR agonist treatment, wild type; type: cell-based; details: C57BL/6 mice, 3 method
# Description: Additionally, in order to identify whether an effect of inhibiting differentiation into dendritic cells is induced in a MyD88-dependent manner, C57BL/6 mice and C57BL/6 MyD88^−/− mice were treated with a TLR agonist in the same manner as the 3 method in Example 1, to induce differentiation, and then a proportion of CD11c^+MHC-II^+ cells was measured. The results are illustrated in FIGS. 5 and 6.
# bone marrow cells [9] = test: TLR9 agonist on bone marrow cells of type I IFN receptor knockout mice; type: cell-based; details: 3 method, day 6
# Description: Finally, in order to accurately check the function of type I IFN, bone marrow cells harvested from wild-type mice and type I IFN receptor knockout mice were treated with a TLR9 agonist using the 3 method in Example 1; and on day 6 of culture, degree of formation of PDCA-1^+ M-MDSCs and dendritic cells was evaluated.
# Ly6C^+ M-MDSCs = test: Ly6C+ M-MDSCs treated with GM-CSF, proportions of CD11c+ cells; type: cell-based; details: Ly6C^+ M-MDSCs of day 6, GM-CSF for 3 days
# Description: Then, GM-CSF was applied in the same manner as in Example 8 and culture was performed for 3 days. Subsequently, proportions of CD11c^+ cells were checked for the respective treatments.
# Then, on day 6 of culture, only Ly6C^+ M-MDSCs were collected. Subsequently, GM-CSF was applied in the same manner as in Example 8 and culture was performed for 3 days. Then, proportions of CD11c^+ cells were checked for the respective treatments.
molecule,measurement,setting,value
IL-6: recombinant IL-6 protein,degree of differentiation of M-MDSCs into dendritic cells,M-MDSCs,remarkably decreased
same,differentiation into PDCA-1^+ M-MDSCs,bone marrow cells [1],increased
same,differentiation into dendritic cells,bone marrow cells [1],further decreased
same,M-MDSCs are formed and differentiation into dendritic cells is inhibited,bone marrow cells [2],in a concentration-dependent manner
same,M-MDSCs having the phenotype CD11c^−CD11b^+Ly6G^− Ly6C^+PDCA-1^−,bone marrow cells [2],induced in large quantities
ODN1826 [TLR9 agonist],"B220, another marker of pDCs",bone marrow cells [3],no significant difference
same,"PDCA-1, a marker of plasmacytoid dendritic cells",bone marrow cells [3],highly induced
same,Gr-1^high MDSCs,"bone marrow cells [4]; 3 method, 6 days",induced at a high level
same,Ly6C^high M-MDSCs (X4 cells),bone marrow cells [4]; Ly6G and Ly6C antibodies,induced
same,Ly6C^high M-MDSCs (X4 cells),bone marrow cells [5],induced
same,cytokines induced at early differentiation stages,bone marrow cells [6],"TNF-α, IL-6, IFN-α, and IFN-β"
same,"IFN-γ, IL-15, IL-1β, TGF-β, IL-4, IL-12p70, IL-10, and FLT2L induction",bone marrow cells [6],not induced
same,capacity of inhibiting dendritic cells (proportion of CD11c^+ cells),bone marrow cells [7],strongly induced
same,proportion of CD11c^+MHC-II^+ cells,bone marrow cells [8],decreased
same,induction of MDSCs,bone marrow cells [9],not induced
IFN-α,M-MDSCs are formed and differentiation into dendritic cells is inhibited,bone marrow cells [2],in a concentration-dependent manner
Pam3CSK4 [TLR2 agonist],differentiation into dendritic cells (proportions of CD11c^+ cells),Ly6C^+ M-MDSCs,hardly induced
same,Gr-1^low MDSCs,"bone marrow cells [4]; 3 method, 6 days",induced at a high level
same,Ly6C^int M-MDSCs (X3 cells),bone marrow cells [4]; Ly6G and Ly6C antibodies,induced
same,Ly6C^int M-MDSCs (X3 cells),bone marrow cells [5],induced
same,cytokines induced at early differentiation stages,bone marrow cells [6],"TNF-α, IL-6, and PGE2"
same,IL-6 induction,bone marrow cells [6]; as compared with a case of being treated with the TLR9 agonist,remarkably induced
same,"IFN-γ, IL-15, IL-1β, TGF-β, IL-4, IL-12p70, IL-10, and FLT2L induction",bone marrow cells [6],not induced
same,capacity of inhibiting dendritic cells (proportion of CD11c^+ cells),bone marrow cells [7],strongly induced
same,proportion of CD11c^+MHC-II^+ cells,bone marrow cells [8],decreased
poly I:C [TLR3 agonist],inhibition of differentiation into dendritic cells (proportions of CD11c^+ cells for respective treatment concentrations),"bone marrow cells [7]; 3 method, 1, 10, 50 ng/ml (TLR3 agonist 10, 100, 500 ng/ml)",not observed
CCCCC[C@H](O)/C=C/[C@H]1[C@H](O)CC(=O)[C@@H]1C/C=C\CCCC(=O)O [PGE2],M-MDSCs are formed and differentiation into dendritic cells is inhibited,bone marrow cells [2],in a concentration-dependent manner
"CC(C)Cn1cnc2c(N)nc3ccccc3c21 [TLR7 agonist, imiquimod]","B220, another marker of pDCs",bone marrow cells [3],no significant difference
same,"PDCA-1, a marker of plasmacytoid dendritic cells",bone marrow cells [3],highly induced
same,Gr-1^high MDSCs,"bone marrow cells [4]; 3 method, 6 days",induced at a high level
same,Ly6C^high M-MDSCs (X4 cells),bone marrow cells [4]; Ly6G and Ly6C antibodies,induced
same,Ly6C^high M-MDSCs (X4 cells),bone marrow cells [5],induced
same,capacity of inhibiting dendritic cells (proportion of CD11c^+ cells),bone marrow cells [7],strongly induced
same,proportion of CD11c^+MHC-II^+ cells,bone marrow cells [8],decreased
